Assay results from publication doi:10.1101/866475v1, “α1A-adrenoceptor inverse agonists and agonists modulate receptor signalling through a conformational selection mechanism” (biorxiv, 2019).

What was measured:
WT α1A-AR = biological target: T1, WT α1A-AR (Homo sapiens, UniProt P35348); type: cell-based; conditions: inverse agonist; 100 nM
T1 construct: gene ADRA1A; wild type, pcDNA3.1, expressed in COS-7 cells
T1 sequence (P35348 1-466): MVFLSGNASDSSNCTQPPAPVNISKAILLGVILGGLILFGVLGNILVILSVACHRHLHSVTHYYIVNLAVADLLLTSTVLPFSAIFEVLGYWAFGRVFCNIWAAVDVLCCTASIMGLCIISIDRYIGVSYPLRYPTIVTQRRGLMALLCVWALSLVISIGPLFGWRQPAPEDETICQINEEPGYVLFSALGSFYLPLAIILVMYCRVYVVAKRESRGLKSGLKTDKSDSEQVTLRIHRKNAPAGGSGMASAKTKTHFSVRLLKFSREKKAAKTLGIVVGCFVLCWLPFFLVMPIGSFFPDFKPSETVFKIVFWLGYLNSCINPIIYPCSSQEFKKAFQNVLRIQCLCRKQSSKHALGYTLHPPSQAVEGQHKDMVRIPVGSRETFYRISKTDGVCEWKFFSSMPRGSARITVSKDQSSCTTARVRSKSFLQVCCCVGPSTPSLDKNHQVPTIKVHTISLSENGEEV

[1] = biological target: T2, α1A-AR-A4 (and its variants α1A-AR-A4 (L312F), α1A-AR-A4-active) (Homo sapiens, UniProt P35348, C14S/T15I/L36I/I65V/N67Y/L80M/F86Y/G127A/G143A/W151F/E171V/F312L/N322K/P327L/S329Y); assay: QAPB competition binding, purified immobilised receptor (KingFisher); conditions: 10 nM QAPB, 20 mM HEPES pH 7.5, 100 mM NaCl, 0.02% DDM, 22 °C, 2 h
T2 construct: gene ADRA1A; thermostabilised, C-terminus truncated at Ser351 plus A and His10
T2 sequence (P35348 2-351 C14S/T15I/L36I/I65V/N67Y/L80M/F86Y/G127A/G143A/W151F/E171V/F312L/N322K/P327L/S329Y): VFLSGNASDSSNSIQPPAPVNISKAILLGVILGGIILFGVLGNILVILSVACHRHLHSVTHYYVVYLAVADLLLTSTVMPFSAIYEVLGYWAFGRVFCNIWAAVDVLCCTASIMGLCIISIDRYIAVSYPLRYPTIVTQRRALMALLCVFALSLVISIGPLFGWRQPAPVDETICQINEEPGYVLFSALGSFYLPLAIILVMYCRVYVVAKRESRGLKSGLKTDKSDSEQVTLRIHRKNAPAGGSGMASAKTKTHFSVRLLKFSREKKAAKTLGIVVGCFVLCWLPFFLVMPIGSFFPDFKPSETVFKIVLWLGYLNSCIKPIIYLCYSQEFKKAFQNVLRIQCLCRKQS

Ki [1] [nM]	Structure (SMILES)	NanoBiT Gq split-luciferase assay, COS-7 (WT α1A-AR)
	COc1cc2nc(N3CCN(C(=O)c4ccco4)CC3)nc(N)c2cc1OC [Prazosin]	inverse agonism of prazosin, WB-4101, phentolamine and silodosin at WT α1A-AR-expressing COS-7 cells
8.4 ± 1.9	C[C@H](Cc1cc2c(c(C(N)=O)c1)N(CCCO)CC2)NCCOc1ccccc1OCC(F)(F)F [Silodosin]	
7.6 ± 3.4	COc1cccc(OC)c1OCCNCC1COc2ccccc2O1 (stereo not drawn) [WB-4101]	
